From patent US8426394B2, “Progesterone antagonists such as CDB-4124 in the treatment of endometriosis, uterine fibroids, dysmenorrhea, breast cancer, etc” (Repros Therapeutics Inc., priority 2008, dated 2013)

What was measured:
[1] = Serum corticosterone in rats; details: progesterone, CDB-4124 and RU-486 groups compared
[2] = system: pre-menopausal adult women diagnosed with endometriosis; assay: Six month study of Proellex (CDB-4124) in the treatment of endometriosis; format: in vivo, human; details: Lucrin
Protocol: Pain reduction also occurred more rapidly than with the active control, Lucrin®. The response of pain to treatment in this study was analyzed in two ways. Patients in the study maintained daily pain diaries to record the severity and frequency of pain. In addition, at each office visit, patients filled out endometriosis symptom surveys that included a questionnaire that evaluated intensity of pain on a bad day on a scale of 0-10 with 10 being the greatest intensity. […] There appeared to be a dose dependent effect on pain reduction. […] This decrease in duration of pain was statistically better (p=0.0012) than the 117.8 (74%; standard deviation 51.4 days) pain free days achieved with Lucrin®. […] Patients on CDB-4124 12.5 mg and 25 mg doses had 115.9 (66%; standard deviation 69.2 days) and 133.6 (75%; standard deviation 27.4 days) pain free days, respectively. […] The 25 mg and 12.5 mg doses of CDB-4124 were not statistically different from Lucrin®. […] The intensity of pain was assessed by the question: “On a […], with 0 being no pain and 10 being extreme pain, how intense was your pain on a bad day?” The mean scores for intensity of pain at baseline were 6.3 for the CDB-4124 groups and 6.1 for the Lucrin® group. […] At month three all four active treatment groups had statistically significant reduction in pain compared with baseline, with the following scores: 3.7 (p=0.03) for 12.5 mg CDB-4124, 3.2 (p=0.03) for 25 mg CDB-4124, 1.6 (p=0.015) for 50 mg CDB-4124 and 1.5 (p=0.016) for Lucrin®. These dose related reductions continued until month six when the values for pain intensity were 2.0 (p=0.008), 2.8 (p=0.023), 0.6 (p=0.004) and 0.7 (p=0.016), respectively. Two months after stopping treatment pain returned and was of similar intensity in all four treatment groups.

[3] = system: progesterone-induced endometrial proliferation in the rabbit uterus; assay: anti-McGinty and anti-Clauberg assays (biological activity in the rabbit uterus); format: in vivo; details: in comparison to RU 486 and CDB-2914
From the text: Also given in Table 1 are the relative biological activities of the same compounds in the rabbit uterus by the anti-McGinty and anti-Clauberg assays. Compound CDB-2914 (listed at the end of the Table) was used as the control or reference compound (rabbit Biological Activity=1.00) for these experiments because results of experiments using CDB-2914 have been published before (Hild-Petito et al., 1996; Passaro et al., 1997; Reel et al., 1998; Lamer et al., 2000). For the anti-McGinty test, immature female rabbits received a subcutaneous injection of 5 μg estradiol in 10% ethanol/sesame oil daily for 6 consecutive days. On day 7, animals underwent sterile abdominal surgery to ligate a 3-4 cm segment of both uterine horns. The test compound in appropriate solvent was injected intraluminally into the ligated segment of one uterine horn and vehicle alone into the other. […] Five micron sections stained with hematoxylin and cosin were evaluated microscopically for the degree of endometrial glandular proliferation. The percent inhibition of endometrial proliferation for each rabbit was calculated and the mean of the group of five animals recorded. […] Five micron sections stained with hematoxylin and eosin were evaluated microscopically for the degree of endometrial glandular proliferation. […]

[4] = target: T1, glucocorticoid receptor (rbGR) (Oryctolagus cuniculus, UniProt P59667); assay: Glucocorticoid receptor binding / anti-glucocorticoid receptor activity; set-up: species or system rabbit
T1 construct: cytosol containing PR or GR were prepared in TEGMD buffer; from tissue; host or cells: thymus of estradiol-primed immature rabbits (cytosol)
T1 sequence (P59667 1-772): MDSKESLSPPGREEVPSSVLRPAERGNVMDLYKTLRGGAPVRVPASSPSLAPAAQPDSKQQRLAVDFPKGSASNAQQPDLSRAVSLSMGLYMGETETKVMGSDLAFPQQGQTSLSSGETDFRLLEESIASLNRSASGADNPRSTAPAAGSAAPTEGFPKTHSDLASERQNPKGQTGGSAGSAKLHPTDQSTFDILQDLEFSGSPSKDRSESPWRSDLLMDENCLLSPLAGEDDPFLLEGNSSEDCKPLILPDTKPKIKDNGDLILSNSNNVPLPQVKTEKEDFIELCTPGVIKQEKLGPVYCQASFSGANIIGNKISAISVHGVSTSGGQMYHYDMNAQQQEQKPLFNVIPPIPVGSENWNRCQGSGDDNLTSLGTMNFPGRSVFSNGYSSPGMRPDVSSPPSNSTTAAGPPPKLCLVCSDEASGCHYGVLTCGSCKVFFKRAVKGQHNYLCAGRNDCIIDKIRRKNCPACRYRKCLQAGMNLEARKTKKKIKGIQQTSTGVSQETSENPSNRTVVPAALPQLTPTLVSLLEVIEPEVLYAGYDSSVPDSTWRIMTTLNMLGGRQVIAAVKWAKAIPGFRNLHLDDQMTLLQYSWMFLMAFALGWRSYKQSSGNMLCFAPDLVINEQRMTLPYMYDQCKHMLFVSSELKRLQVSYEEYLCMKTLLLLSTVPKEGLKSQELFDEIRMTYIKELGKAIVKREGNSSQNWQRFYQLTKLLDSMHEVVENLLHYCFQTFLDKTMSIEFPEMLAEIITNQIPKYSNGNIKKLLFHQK
Protocol: Certain antiprogestins were tested in receptor-binding assays for their ability to bind rabbit progesterone receptor (rbPR) and glucocorticoid receptor (rbGR). […] For PR binding, the cytosol was incubated with 6 nM 1,2-[^3H]progesterone (50.0 Ci/mmole) and competitors were added at concentrations from 2 to 100 nM. For binding to GR, the cytosol was incubated with 6 nM 6,7-[^3H]-dexamethasone (40 Ci/mmol) and test compounds were added at concentrations from 20 to 100 nM. After overnight incubation at 4 C, bound and unbound [^3H] steroids were separated by addition of dextran-coated charcoal and centrifugation at 2100×g for 15 min at 4 C. Supernatants containing the [3H]-steroid receptor complexes were decanted into vials containing 4 ml Optifluor (Packard Instrument Co.), vortexed, equilibrated in a liquid scintillation counter for 30 minutes and then counted for 2 minutes. […] The standards for the PR and GR assays were unlabeled progesterone and dexamethasone, respectively.

[5] = target: T2, glucocorticoid receptor (Homo sapiens, UniProt P04150); details: Attardi et al., 2002; cited from earlier work
T2 sequence (P04150 1-777): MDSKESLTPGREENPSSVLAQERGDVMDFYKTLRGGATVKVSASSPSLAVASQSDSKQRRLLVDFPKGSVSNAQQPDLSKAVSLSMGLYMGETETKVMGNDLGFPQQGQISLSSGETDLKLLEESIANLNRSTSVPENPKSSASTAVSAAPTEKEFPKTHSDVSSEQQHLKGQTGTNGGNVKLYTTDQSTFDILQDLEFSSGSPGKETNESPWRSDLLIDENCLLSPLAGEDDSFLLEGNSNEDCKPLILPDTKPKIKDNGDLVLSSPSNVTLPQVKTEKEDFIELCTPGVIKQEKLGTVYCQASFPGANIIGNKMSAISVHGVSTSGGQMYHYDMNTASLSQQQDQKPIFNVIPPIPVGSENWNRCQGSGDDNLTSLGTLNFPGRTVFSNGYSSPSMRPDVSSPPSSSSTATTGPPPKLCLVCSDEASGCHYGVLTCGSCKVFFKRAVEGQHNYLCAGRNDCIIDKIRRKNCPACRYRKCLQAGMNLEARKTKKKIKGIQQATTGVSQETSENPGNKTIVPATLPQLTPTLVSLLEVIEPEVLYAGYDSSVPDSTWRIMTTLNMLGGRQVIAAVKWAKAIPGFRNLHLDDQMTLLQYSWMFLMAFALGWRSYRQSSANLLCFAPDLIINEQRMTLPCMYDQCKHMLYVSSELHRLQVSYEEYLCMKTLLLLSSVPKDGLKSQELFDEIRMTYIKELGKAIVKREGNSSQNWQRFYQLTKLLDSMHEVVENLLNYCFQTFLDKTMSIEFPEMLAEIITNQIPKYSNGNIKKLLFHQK

SMILES: CC#C[C@]1(O)CC[C@H]2[C@@H]3CCC4=CC(=O)CCC4=C3[C@@H](c3ccc(N(C)C)cc3)C[C@@]21C [RU 486, 11β-[p-(Dimethylamino)phenyl]-17β-hydroxy-17-(1-propynyl)estra-4,9-dien-3-one, reference compound]
- differences in serum corticosterone between treatment groups [1]: No differences

SMILES: CCNC(=O)[C@@H]1CCCN1C(=O)[C@H](CCCNC(=N)N)NC(=O)[C@H](CC(C)C)NC(=O)[C@@H](CC(C)C)NC(=O)[C@H](Cc1ccc(O)cc1)NC(=O)[C@H](CO)NC(=O)[C@H](Cc1c[nH]c2ccccc12)NC(=O)[C@H](Cc1c[nH]cn1)NC(=O)[C@@H]1CCC(=O)N1 [Lupron®, leuprolide acetate, reference compound]
- intensity of pain on a bad day (score) ([2]; month six, scale 0-10, p=0.016): 0.7
- intensity of pain on a bad day (score) ([2]; month three, scale 0-10, baseline 6.1, p=0.016): 1.5

SMILES: CC(=O)OCC(=O)[C@@]1(OC(C)=O)CCC2C3CCC4=CC(=O)CCC4=C3C(c3ccc(N(C)C)cc3)C[C@@]21C (stereo partly drawn) [CDB-4059, 21-acetoxy-17α-acetoxy-11β-(4 N,N-dimethylaminophenyl)-19-norpregna-4,9-diene-3,20-dione]
- antiprogestin activity in the rabbit uterus [3]: strong
- anti-glucocorticoid receptor activity / glucocorticoid receptor binding [4]: minimal

SMILES: CNc1ccc([C@H]2C[C@@]3(C)[C@@H](CC[C@]3(OC(C)=O)C(=O)COC)[C@@H]3CCC4=CC(=O)CCC4=C32)cc1 [CDB-4453, 21-methoxy-17α-acetoxy-11β-(4-N-methylaminophenyl)-19-norpregna-4,9-diene-3,20-dione]
- anti-glucocorticoid activity relative to parent CDB-4124 [5]: even lower
